Measured values taken from patent US11933866B2, “Magnetic resonance maps for analyzing brain tissue” (Tel HaShomer Medical Research Infrastructure and Services …, priority 2013, dated 2024).

Legend:
glioblastoma [1] = settings: TMZ during radiotherapy and for six months post radiotherapy; cited from earlier work
glioblastoma [2] = settings: glioblastoma patients at progression after standard therapy; results of 2 studies; cited from earlier work
[3] = test system: cerebellar metastasis of breast cancer; test: Delayed contrast extravasation MRI maps before and after Avastin treatment, patient case (Example 15); assay type: in vivo, human; settings: one patient, 2 years after stereotactic radiosurgery; maps before vs after Avastin treatment
Description: There is current dispute weather Avastin affects active tumor or only treatment effects.
A patient with cerebellar metastasis of breast cancer was recruited 2 years after stereotactic radiosurgery with suspected radiation necrosis.

recurrent GBM = test: Conventional MRI and maps follow-up of a recurrent GBM patient on Bevacizumab (Example 3); assay type: in vivo, human; settings: one patient, three months after initiation of Bevacizumab treatment
Description: Referring now to FIG. 8, a person with recurrent GBM was recruited 7 month after diagnosis prior to initiation of Bevacizumab treatment. At diagnosis the patients was operated on and received chemoradiation followed by TMZ. Six months later, at progression, the patient underwent a second resection and was recruited to the present Bevacizumab study 1 month after the second surgery, prior to initiation of the Bevacizumab treatment. At this point their enhancing lesion consisted of nearly 50% tumor according to the maps. […] Following this scan the patient was treated with re-irradiation (in parallel with continuing Bevacizumab) and was stabilized. […] The patient lived another ˜7 months after this last MRI scan.

Cn1nnc2c(C(N)=O)ncn2c1=O [temozolomide]
additional toxicity (glioblastoma [1]): minimal additional toxicity

Bevacizumab
tumor size (glioblastoma [2]): reduced tumor size in some glioblastoma patients | response of tumor and radiation necrosis components in the maps [3]: remarkable response of both components | conventional MRI finding (recurrent GBM): showed improvement | blue/tumor volume in the maps (recurrent GBM; consistent with clinical deterioration): significantly larger blue/tumor volume
